Test results from patent publication US9242984B2, “Pyrazolyl derivatives as Syk inhibitors” (Merck Sharp & Dohme Corp., priority 2012, dated 2016).
Like-named read-outs stand apart in the source and are kept apart here.

Molecular target: T1, recombinant human Syk (GST-hSyk fusion protein) (Homo sapiens, UniProt P43405)
T1 construct: purchased Carna Biosciences 08-176
Assay: Homogeneous Time-Resolved Fluorescence (HTRF) assay for the recombinant human Syk enzyme
Format: biochemical
Settings: 10-dose titration, 25 μM ATP
In short: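 GST-hSyk (5 pM) preincubated 10 min with compound (0.1% DMSO) in 15 mM Tris-HCl pH 7.5, 2 mM DTT; reaction started with 250 nM biotinylated peptide, 5 mM Mg, 25 μM ATP, 45 min, room temperature. EDTA quench, Eu-anti-phosphotyrosine/SA-APC HTRF read after 30 min; IC50 from 10-dose titration (10 μM–0.508 nM), four-parameter fit.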

[1] = IC50 class, read-out: rhSYK Activity

| Compound | IC50 [1] [nM] | IC50 (read-out: rhSYK IC50) [nM] |
| --- | --- | --- |
| Cc1cc(Nc2nccc(C(F)(F)F)n2)cc(-c2cnn(CC3CN(C)C(=O)O3)c2)c1 (stereo not drawn) [Example 3.46] | ≤ 100 | – |
| Cc1cc(Nc2nccc(C(F)F)n2)cc(-c2cnn(CCN)c2)c1 [Example 2.82, N-{3-[1-(2-aminoethyl)-1H-pyrazol-4-yl]-5-methylphenyl}-4-(difluoromethyl)pyrimidin-2-amine] | ≤ 100 | – |
| CCOC(=O)CCc1cnn(-c2cc(C)cc(Nc3nccc(OC)n3)c2)c1 [Example 19.5, Ethyl 3-(1-{3-[(4-methoxypyrimidin-2-yl)amino]-5-methylphenyl}-1H-pyrazol-4-yl)propanoate] | 100 to 1000 | – |
| Cc1cc(Nc2nccc(C(F)F)n2)cc(-c2cnn(CC(O)CC3(O)CCCCC3)c2)c1 (stereo not drawn) [Example 5.27, 1-{3-[4-(3-{[4-(difluoromethyl)pyrimidin-2-yl]amino}-5-methylphenyl)-1H-pyrazol-1-yl]-2-hydroxypropyl}cyclohexanol] | ≤ 100 | – |
| Cc1cc(Nc2nccc(C)n2)cc(-c2cnn(CCC(N)=O)c2)c1 [Example 2.12, 3-(4-{3-methyl-5-[(4-methylpyrimidin-2-yl)amino]phenyl}-1H-pyrazol-1-yl)propanamide] | ≤ 100 | – |
| Cc1cc(Nc2nccc(C(F)F)n2)cc(-c2cnn(CC3(O)CCS(=O)(=O)CC3)c2)c1 [Example 5.42, 4-{[4-(3-{[4-(difluoromethyl)pyrimidin-2-yl]amino}-5-methylphenyl)-1H-pyrazol-1-yl]methyl}tetrahydro-2H-thiopyran-4-ol 1,1-dioxide] | ≤ 100 | – |
| Cc1cc(Nc2ncccn2)cc(-c2cnn(C3CC(C(N)=O)C3)c2)c1 (single isomer, unassigned) [Example 30.1, 3-(4-(3-Methyl-5-(pyrimidin-2-ylamino)phenyl)-1H-pyrazol-1-yl)cyclobutanecarboxamide] | ≤ 100 | 48.3 |
| Cc1ccnc(Nc2cccc(-c3cnn(C[C@](C)(O)CO)c3)c2)n1 [Example 2.95, (2S)-2-methyl-3-(4-{3-[(4-methylpyrimidin-2-yl)amino]phenyl}-1H-pyrazol-1-yl)propane-1,2-diol] | 100 to 1000 | – |
| Cc1cc(Nc2nccc(C(F)(F)F)n2)cc(-c2cnn3ccccc23)c1 [Example 1.1, N-(3-methyl-5-(pyrazolo[1,5-a]pyridin-3-yl)phenyl)-4-(trifluoromethyl)pyrimidin-2-amine] | ≤ 100 | 65.8 |
| Cc1cc(Nc2nccc(C(F)(F)F)n2)cc(-c2cnn(C3CCCC(O)C3O)c2)c1 (stereo not drawn) [Example 10.2, 3-[4-(3-methyl-5-{[4-(trifluorometh-yl)pyrimidin-2-yl]amino}phen-yl)-1H-pyrazol-1-yl]cyclohexane-1,2-diol] | ≤ 100 | – |
| Cc1cc(Nc2nccc(C(F)F)n2)cc(-c2cnn(C3CCCC(O)C3O)c2)c1 (single isomer, unassigned) [Example 10.4, 3-[4-(3-{[4-(difluoromethyl)pyrimidin-2-yl]amino}-5-methylphenyl)-1H-pyrazol-1-yl]cyclohexane-1,2-diol] | ≤ 100 | 3.7 |
| COC(=O)c1ccc(C(O)Cn2cc(-c3cc(C)cc(Nc4nccc(C(F)(F)F)n4)c3)cn2)cc1 (stereo not drawn) [Example 3.54, methyl 4-{1-hydroxy-2-[4-(3-methyl-5-{[4-(trifluoromethyl)pyrimidin-2-yl]amino}phenyl)-1H-pyrazol-1-yl]ethyl}benzoate] | ≤ 100 | – |
| CCOC(=O)CCn1cc(-c2cccc(Nc3cc(C(F)(F)F)ccn3)n2)cn1 [Example 1.24, ethyl 3-[4-(6-{[4-(trifluoromethyl)pyridin-2-yl]amino}pyridin-2-yl)-1H-pyrazol-1-yl]propanoate] | 100 to 1000 | – |
| Cc1cc(Nc2cc(C(F)F)ccn2)nc(-c2cnn(CC3CNC(=O)O3)c2)c1 (stereo not drawn) [Example 3.83, 5-{[4-(6-{[4-(difluoromethyl)pyridin-2-yl]amino}-4-methylpyridin-2-yl)-1H-pyrazol-1-yl]methyl}-1,3-oxazolidin-2-one] | ≤ 100 | – |
| Cc1cc(Nc2nccc(C(F)F)n2)cc(-c2cnn(CC3(C)CNC(=O)O3)c2)c1 (stereo not drawn) [Example 3.123, 5-{[4-(3-{[4-(difluoromethyl)pyrimidin-2-yl]amino}-5-methylphenyl)-1H-pyrazol-1-yl]methyl}-5-methyl-1,3-oxazolidin-2-one] | ≤ 100 | – |
| Cc1cc(Nc2nccc(C(F)(F)F)n2)cc(-n2cc(C3(O)CCC(C(=O)O)C(C)(C)C3)cn2)c1 (stereo not drawn) [Example 19.15, 4-hydroxy-2,2-dimethyl-4-[1-(3-methyl-5-{[4-(trifluoromethyl)pyrimidin-2-yl]amino}phenyl)-1H-pyrazol-4-yl]cyclohexanecarboxylic acid] | 100 to 1000 | – |
| Cc1ccnc(Nc2cc(C)nc(-c3cnn(C[C@@H](O)C(=O)O)c3)n2)c1 [Example 11.19, (2R)-2-hydroxy-3-(4-{4-methyl-6-[(4-methyl-pyridin-2-yl)amino]-pyrimidin-2-yl}-1H-pyrazol-1-yl)propanoic acid] | 100 to 1000 | – |
| Cc1cc(Nc2nccc(C)n2)cc(-c2cnn(C[C@H](O)C(N)=O)c2)c1 [Example 6.3, (2S)-2-hydroxy-3-(4-{3-methyl-5-[(4-methylpyrimidin-2-yl)amino]phenyl}-1H-pyrazol-1-yl)propanamide] | ≤ 100 | – |
| 6-methyl-2-pyrazolo-[1,5-a]pyridin-3-yl-N-[4-(trifluoromethyl)-pyridin-2-yl]pyrimidin-4-amine [Example 1.42] | ≤ 100 | – |
| Cc1cc(Nc2ncc(F)c(C(F)F)n2)cc(-c2cnn(CC3OC(=O)NC3C)c2)c1 (single isomer, unassigned) [Example 23.21, 5-{[4-(3-{[4-(difluoromethyl)-5-fluoropyrimidin-2-yl]amino}-5-methylphenyl)-1H-pyrazol-1-yl]methyl}-4-methyl-1,3-oxazolidin-2-one] | ≤ 100 | – |
| Cc1cc(Nc2nccc(C(F)F)n2)cc(-c2cnn(CCNC(=O)CC#N)c2)c1 [Example 26.4, 2-cyano-N-{2-[4-(3-{[4-(difluoromethyl)pyrimidin-2-yl]amino}-5-methylphenyl)-1H-pyrazol-1-yl]ethyl}acetamide] | ≤ 100 | – |
| Cc1cc(Nc2nccc(C(F)(F)F)n2)cc(-c2cnn(CCC3CCCN3)c2)c1 (stereo not drawn) [Example 13.2, N-{3-methyl-5-[1-(2-pyrrolidin-2-ylethyl)-1H-pyrazol-4-yl]phenyl}-4-(trifluoro-methyl)-pyrimidin-2-amine] | ≤ 100 | – |
| Cc1ccnc(Nc2cc(C)cc(-c3cnn(CCC(=O)O)c3)n2)c1 [Example 1.20, 3-(4-{4-methyl-6-[(4-methylpyridin-2-yl)amino]pyridin-2-yl}-1H-pyrazol-1-yl)propanoic acid] | 100 to 1000 | – |
| Cc1cc(Nc2nccc(C(F)F)n2)cc(-c2cnn(CC3OC(=O)NC3CO)c2)c1 (single isomer, unassigned) [Example 33.1, 5-{[4-(3-{[4-(difluoromethyl)pyrimidin-2-yl]amino}-5-methylphenyl)-1H-pyrazol-1-yl]methyl}-4-(hydroxymethyl)-1,3-oxazolidin-2-one] | ≤ 100 | 1.6 |
| Cc1cc(Nc2nccc(C(F)(F)F)n2)cc(-c2cnn(C[C@H](N)C(N)=O)c2)c1 [Example 7.2, 3-[4-(3-methyl-5-{[4-(trifluoro-methyl)pyrimidin-2-yl]amino}phenyl)-1H-pyrazol-1-yl]-1-alaninamide] | ≤ 100 | – |
| Cc1cc(Nc2nccc(C(C)C)n2)cc(-c2cnn(CCC(N)=O)c2)c1 [Example 2.8, 3-[4-(3-methyl-5-{[4-(1-methylethyl)-pyrimidin-2-yl]-amino}phenyl)-1H-pyrazol-1-yl]propanamide] | ≤ 100 | – |
